Where two headings read alike, the source gives them in different places.
Key:
C. elegans = C. elegans dose-response (viability, minimum lethal concentration); assay type: in vivo, Caenorhabditis elegans; settings: Caenorhabditis elegans, 72 h, L1 worms, 3 days at 20° C.
Protocol: Forty microliters of an HB101 E. coli bacterial suspension in liquid NGM (nematode growth media—see ref. 42 for the recipe) was added to each well of a 96-well flat-bottom culture plate, after which approximately 25 synchronized L1 worms, in 10 μl of M9 buffer (see ref. 43 for the recipe), were added to each well. The synchronized L1 worms were obtained from an embryo preparation performed the previous day (see ref. 43 for the protocol). For the L1 assays, 0.5 μl of test compound solution (or DMSO alone) was immediately added to the wells using a multichannel pipette; the final DMSO concentration is 1% (v/v). The worms were incubated for 3 days at 20° C. and the number of viable animals was counted.
At least three biological replicates were performed for each dose-response assay. For each biological replicate, two technical replicates were performed and the numbers of viable animals for each technical replicate were combined (i.e. ˜ 50 worms assayed per concentration). The number of viable worms at each concentration was divided by the corresponding DMSO control value to give the “relative viability” for each concentration. The “relative viability” values were then averaged across the biological replicates. Minimum lethal concentration was defined as the lowest concentration at which at least 20% of worms die.

M. incognita J2 larvae = assay: Meloidogyne incognita in vitro larval mobility assay; assay type: in vivo; settings: for Replicate 1 z-score / Replicate 2 z-score: z-score vs untreated DMSO wells; for pest or weed control at 45 µM: Meloidogyne incognita, 96 h
Protocol: M. incognita (Kofoid & White) Chitwood Race 1 (originally isolated in Maryland) was used for all experiments, and was maintained on pepper (Capsicum annuum L.) cv. PA-136 in a greenhouse as previously described^44. Infective J2 juveniles were collected as described in ref. 45. The microwell dose-response experiments were carried out similarly to previously described protocols^44,46. In brief, 50 μL of deionized water was added to the wells of 96-well polystyrene plates and 0.5 μL of test compound (or DMSO alone) was added to each well. Approximately 35 J2s were then added to each well in 49.5 μL of deionized water. The chemicals were tested at 45 μM, and the final concentration of DMSO in each well was 0.5% (v/v). DMSO alone was added to 3 separate wells. The plates were covered with plastic adhesive strips, and the lids of the plates were sealed with parafilm. The plates were incubated at 25° C. without shaking for 4 days. The percent of worms that were immobile (% immobile) was quantified by counting the number of immobile worms after 4 days of incubation, dividing the number of immobile worms by the total number of worms in the well, and then multiplying by 100. Two replicates were performed for each treatment. The z-score for each treatment was calculated using the mean and standard deviation of the untreated DMSO control wells. The average % immobile value was calculated across the two replicates. A test compound was considered most promising if the z-score was greater than 1.645 in both replicates.

M. hapla eggs = assay: Meloidogyne hapla in vitro egg hatch assay; assay type: in vivo; settings: 45 μM; for Number of Hatched Eggs: 8 days at room temperature, about 90 eggs per well, tested once; for Number of Hatched Eggs z-score: 8 days, z-score vs 8 untreated DMSO wells
Protocol: The M. hapla were originally obtained from a soil sample of muck soil from Ste-Clotilde, Quebec, Canada. Using tweezers, egg masses were carefully removed from root material from infested carrot roots. Eggs were liberated from the egg masses using a mild sodium hypochlorite bleaching protocol, whereby egg masses were bleached with a 10% commercial bleach (sodium hypochlorite) solution for 4 minutes with vigorous shaking, and then washed 5 times with deionized water. 50 μL of deionized water was added to each well of two 96-well polystyrene culture plates, and 0.5 μL of chemical (or DMSO alone) was added to each well. Approximately 90 eggs were added to each well in 49.5 ul of deionized water. The plates were sealed with parafilm and incubated for 8 days at room temperature without shaking in a Tupperware box filled with wet paper towels. After the 8-day incubation, the number of hatched eggs was counted for each treatment and for the untreated controls. Each chemical treatment was tested only once. 8 separate untreated DMSO controls were included in the experiment. The z-score for each treatment was calculated using the mean and standard deviation of the untreated DMSO control wells.

[1] = lowest concentration at which at least 20% of worms die, read-out: Minimum Lethal Concentration
[2] = same values in ppm, read-out: Minimum Lethal Concentration (ppm)
[3] = 45 μM, 4 days, average of the two replicates, read-out: Average % Immobile
[4] = 45 μM, 4 days, replicate 1, read-out: Replicate 1 % Immobile
[5] = 45 μM, 4 days, replicate 2, read-out: Replicate 2 % Immobile

SMILES	minimal effective concentration (C. elegans; [1])	minimal effective concentration (C. elegans; [2])	Replicate 1 z-score (M. incognita J2 larvae; 45 μM, 4 days, replicate 1)	Replicate 2 z-score (M. incognita J2 larvae; 45 μM, 4 days, replicate 2)	Number of Hatched Eggs (M. hapla eggs)	Number of Hatched Eggs z-score (M. hapla eggs)	pest or weed control at 45 µM (M. incognita J2 larvae; [3])	pest or weed control at 45 µM (M. incognita J2 larvae; [4])	pest or weed control at 45 µM (M. incognita J2 larvae; [5])	further results
Cc1csc2nc(-c3cccc(Br)c3)cn12 [I-36]	> 100 µM	> 29.3 µg/mL	–	–	–	–	–	–	–	–
Cc1csc2nc(-c3ccccc3F)cn12 [I-20]	> 100 µM	> 23.2 µg/mL	–	–	–	–	–	–	–	–
Cc1csc2nc(-c3ccccc3Br)cn12 [I-40]	> 100 µM	> 29.3 µg/mL	–	–	–	–	–	–	–	–
CNC(=O)O/N=C(\SC)C(=O)N(C)C [Oxamyl, oxamyl, reference compound]	–	–	[9.35]	[13.88]	9	[1.65]	–	–	–	pest or weed control at 45 µM (M. incognita J2 larvae; read-out: Average % Immobile): 66.9%; pest or weed control at 45 µM (M. incognita J2 larvae; read-out: Replicate 1 % Immobile): 67.2%; pest or weed control at 45 µM (M. incognita J2 larvae; read-out: Replicate 2 % Immobile): 66.7%
N#Cc1ccc(-c2cn3ccsc3n2)cc1 [I-87]	–	–	[6.98]	[9.68]	3	[3.64]	60.1%	56.9%	63.3%	–
Cc1ccc(-c2nc3sccn3c2C)cc1 [I-3]	> 100 µM	> 22.8 µg/mL	[6.94]	[2.76]	–	–	40.8%	56.7%	25%	–
Cc1ccc(-c2cn3ccsc3n2)cc1 [I-2]	50 µM	14.8 µg/mL	[14.54]	[6.03]	–	–	68.5%	93.8%	43.1%	–
CC(C)NC(=O)N1CC(=O)N(c2cc(Cl)cc(Cl)c2)C1=O [Iprodione, iprodione, reference compound]	–	–	[−0.02]	[1.71]	15	[−0.33]	13.8%	10.9%	16.7%	–
CCOc1ccc(-c2nc3sccn3c2C=O)cc1 [I-154]	–	–	[10.40]	[16.33]	0	[4.63]	≥ 75%	73.6%	100%	Number of Hatched Eggs (M. hapla eggs; listed as 1-154): completely inhibited egg hatching
c1ccc(-c2nc3sccn3n2)cc1 [I-116]	–	–	[4.40]	[2.43]	2	[3.97]	33.7%	44.2%	23.2%	–
Ic1cccc(-c2cn3ccsc3n2)c1 [I-42]	25 µM	8.2 µg/mL	[5.89]	[11.03]	–	–	61.1%	51.5%	70.7%	–
Cc1c(-c2ccccc2Br)nc2sccn12 [I-39]	> 100 µM	> 29.3 µg/mL	–	–	–	–	–	–	–	–
Clc1ccc(-c2cn3c(n2)SCC3)cc1 [I-49]	–	–	[15.80]	[16.33]	2	[3.97]	–	100%	100%	–
O=Cc1c(-c2ccccc2)nc2sccn12 [I-122]	–	–	[14.96]	[12.31]	1	[4.30]	≥ 75%	95.9%	77.8%	–
Fc1ccccc1-c1cn2ccsc2n1 [I-89]	–	–	[10.62]	[12.27]	3	[3.64]	≥ 75%	74.7%	77.6%	–
Brc1ccc(-c2cn3c(n2)SCC3)cc1 [I-48]	–	–	[15.80]	[5.11]	0	[4.63]	69%	100%	38%	Number of Hatched Eggs (M. hapla eggs; listed as 1-48): completely inhibited egg hatching
Nc1ccc(-c2cn3ccsc3n2)cc1 [I-44]	> 100 µM	> 21.5 µg/mL	–	–	–	–	–	–	–	–
CC(C)(C)c1ccc(-c2cn3ccsc3n2)cc1 [I-12]	100 µM	25.6 µg/mL	–	–	–	–	–	–	–	–
Clc1ccc(-c2cn3ccsc3n2)s1 [I-84]	–	–	[13.56]	[16.33]	0	[4.63]	≥ 75%	89.1%	100%	Number of Hatched Eggs (M. hapla eggs; listed as 1-84): completely inhibited egg hatching
Cc1ccc(-c2cn3cc(C)sc3n2)cc1 [I-5]	25 µM	5.7 µg/mL	–	–	–	–	–	–	–	–
CCc1ccc(-c2nc3sccn3c2C)cc1 [I-8]	50 µM	12.1 µg/mL	–	–	–	–	–	–	–	–
